Read-outs that look alike come from different tables or passages of the source.
Columns and labels:
[1] = system: AP-1 induced transcriptional activity; assay: Cellular Transrepressional Assay (AP-1 luciferase reporter in A549 cells, PMA-activated); format: cell-based; settings: pAP-1-Luc, 10 ng/ml PMA, read-out: AP-1 (EC50, nM) (Cellular Transrepression Assay)
Protocol: To measure the ability of test molecules to inhibit AP-1 induced transcriptional activity an A549 cell was utilized which was stably transfected with a plasmid containing 7×AP-1 DNA binding sites (pAP-1-Luc plasmid, Stratagene Co. La Jolla, Calif.) followed by the gene for luciferase. Cells were activated with 10 ng/ml of phorbol myristic acid (PMA) plus or minus test molecules for 7 hours. After 7 hours a luciferase reagent was added to measure luciferase enzymatic activity in the cell. After a 10 minute incubation of luciferase reagent with cells, luminescence was measured in a TopCount luminescence counter. Repression of AP-1 activity was calculated as the percentage decrease in the signal induced by PMA alone. Test molecules were analyzed in the concentration range from 0.1 nM to 40 μM. EC50s were determined by using standard curve fitting methods such as Excel fit (Microsoft Co.).

[2] = biological target: T1, human glucocorticoid receptor (Homo sapiens, UniProt P04150); assay: Glucocorticoid Receptor Binding Assay (I), fluorescence polarization competitor kit (Fluormone GS Red); settings: purified human recombinant full-length GR
T1 construct: purified human recombinant full-length glucocorticoid receptor (2 nM); purchased Invitrogen Part # 2893
T1 sequence (P04150 1-777): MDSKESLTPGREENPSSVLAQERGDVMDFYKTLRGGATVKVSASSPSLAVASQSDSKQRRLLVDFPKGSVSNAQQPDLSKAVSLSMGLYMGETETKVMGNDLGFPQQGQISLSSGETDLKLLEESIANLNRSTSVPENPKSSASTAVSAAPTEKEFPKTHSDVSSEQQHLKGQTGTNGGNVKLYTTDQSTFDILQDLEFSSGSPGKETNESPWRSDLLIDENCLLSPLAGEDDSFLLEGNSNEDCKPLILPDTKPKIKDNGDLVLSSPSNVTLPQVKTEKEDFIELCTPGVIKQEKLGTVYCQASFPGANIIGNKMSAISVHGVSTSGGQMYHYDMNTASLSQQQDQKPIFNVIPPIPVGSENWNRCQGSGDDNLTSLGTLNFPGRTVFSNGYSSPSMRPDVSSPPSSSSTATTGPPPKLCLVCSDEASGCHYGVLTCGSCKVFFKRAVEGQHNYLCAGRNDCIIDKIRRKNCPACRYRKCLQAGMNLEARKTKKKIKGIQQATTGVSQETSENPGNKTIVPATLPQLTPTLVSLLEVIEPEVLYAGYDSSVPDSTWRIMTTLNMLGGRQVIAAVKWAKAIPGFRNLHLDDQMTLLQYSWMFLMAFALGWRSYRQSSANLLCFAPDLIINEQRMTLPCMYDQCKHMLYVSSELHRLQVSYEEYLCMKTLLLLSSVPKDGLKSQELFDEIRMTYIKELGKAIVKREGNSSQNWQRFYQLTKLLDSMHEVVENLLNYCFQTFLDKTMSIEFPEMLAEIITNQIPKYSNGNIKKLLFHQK
Protocol: In order to assess the affinity of test compounds for the human glucocorticoid receptor, a commercially available kit was used (Glucocorticoid Receptor Competitor Assay Kit, Invitrogen Part # 2893). Briefly, purified human recombinant full-length glucocorticoid receptor (2 nM) was mixed with fluorescently labeled glucocorticoid (1 nM Fluormone GS Red) in the presence or absence of test compound. After two hour incubation at room temperature in the dark, the fluorescence polarization (FP) of the samples was measured. […] Test compounds were analyzed in the concentration range from 8.5E-05 μM to 5 μM.

Row | Compound | EC50 ([1]; Homo sapiens, A549, 7 h) | Ki [2] | EC50 ([1]; 7 hours)
1 | CC(C)CC(c1ccc2c(cnn2-c2ccc(F)cc2)c1)C(C)(C)CNC(=O)NC(C)(C)C(=O)Nc1ccccc1 (centres unmarked) [Example 56, 2-(3-(3-(1-(4-fluorophenyl)-1H-indazol-5-yl)-2,2,5-trimethylhexyl)ureido)-2-methyl-N-phenylpropanamide] | 80 nM | 6.1 nM | 
2 | CC(CNC(=O)NC(C)(C)C)C(c1ccccc1)c1ccc2c(cnn2-c2ccc(F)cc2)c1 (single isomer, unassigned) [Example 97A, 1-tert-butyl-3-(3-(1-(4-fluorophenyl)-1H-indazol-5-yl)-2-methyl-3-phenylpropyl)urea] |  | 4 nM | 71 nM
3 | CCC(CNS(=O)(=O)CC(F)(F)F)C(c1ccccc1)c1ccc2c(cnn2-c2ccc(F)cc2)c1 (centres unmarked) [Example 98, 2,2,2-Trifluoro-N-(2-((1-(4-fluorophenyl)-1H-indazol-5-yl)(phenyl)methyl)butyl)ethanesulfonamide] | 17 nM | 3.7 nM | 
4 | CC(C)CC(c1ccc2c(cnn2-c2ccc(F)cc2)c1)C(C)(C)CNC(=O)NC(C)(C)CN (centres unmarked) [Example 41, 1-(1-amino-2-methylpropan-2-yl)-3-(3-(1-(4-fluorophenyl)-1H-indazol-5-yl)-2,2,5-trimethylhexyl)urea] | > 10000 nM | 8.1 nM | 
5 | CC(C)CC(c1ccc2c(cnn2-c2ccc(F)cc2)c1)C(C)(C)CNC(=O)NC(C)(C)Cc1ccc(F)cc1 (centres unmarked) [Example 54, 1-(3-(1-(4-fluorophenyl)-1H-indazol-5-yl)-2,2,5-trimethylhexyl)-3-(1-(4-fluorophenyl)-2-methylpropan-2-yl)urea] | 285 nM | 22 nM | 
6 | CC(C)(CNC(=O)Nc1ccccn1)C(C)(C)c1ccc2c(cnn2-c2ccc(F)cc2)c1 [Example 116, 1-(3-(1-(4-fluorophenyl)-1H-indazol-5-yl)-2,2,3-trimethylbutyl)-3-(pyridin-2-yl)urea] | > 10000 nM | 177 nM | 
7 | C=CCC(c1ccc2c(cnn2-c2ccc(F)cc2)c1)C(C)(C)CNC(=O)NC(C)(C)C (centres unmarked) [Example 105, 1-tert-butyl-3-(3-(1-(4-fluorophenyl)-1H-indazol-5-yl)-2,2-dimethylhex-5-enyl)urea] | 77 nM | 1.7 nM | 
8 | CC(CNS(C)(=O)=O)C(c1ccccc1)c1ccc2c(cnn2-c2ccc(F)cc2)c1 (centres unmarked) [Example 92, N-(3-(1-(4-fluorophenyl)-1H-indazol-5-yl)-2-methyl-3-phenylpropyl)methanesulfonamide] | 12 nM | 0.94 nM | 
9 | CC(C)CC(c1ccc2c(cnn2-c2ccc(F)cc2)c1)C(C)(C)CNC(=O)N1CCC[C@@H]1CO (stereo partly drawn) [Example 39, (2R)-N-(3-(1-(4-fluorophenyl)-1H-indazol-5-yl)-2,2,5-trimethylhexyl)-2-(hydroxymethyl)pyrrolidine-1-carboxamide] | > 10000 nM | 3.2 nM | 
10 | CC(C)CC(c1ccc2[nH]ncc2c1)C(C)(C)CNC(=O)NC(C)(C)C (centres unmarked) [Example 70, 1-(3-(1H-indazol-5-yl)-2,2,5-trimethylhexyl)-3-tert-butylurea] | > 10000 nM | 44 nM | 
11 | CC(C)CC(c1ccc2c(cnn2-c2ccc(F)cc2)c1)C(C)(C)CNC(=O)[C@@H](O)C(C)(C)C (single isomer, unassigned) [Example 69 diastB, N-(3-(1-(4-fluorophenyl)-1H-indazol-5-yl)-2,2,5-trimethylhexyl)-2-hydroxy-3,3-dimethylbutanamide] | > 10000 nM | 3.4 nM | 
12 | CC(C)CC(c1ccc2c(cnn2-c2ccc(F)cc2)c1)C(C)(C)CNC(=O)NC(C)(C)CC(=O)O (centres unmarked) [Example 51, 3-(3-(3-(1-(4-fluorophenyl)-1H-indazol-5-yl)-2,2,5-trimethylhexyl)ureido)-3-methylbutanoic acid] | 624 nM | 3 nM | 
13 | CCCC(CNS(=O)(=O)CC(F)(F)F)C(c1ccccc1)c1ccc2c(cnn2-c2ccc(F)cc2)c1 (centres unmarked) [Example 99, 2,2,2-Trifluoro-N-(2-((1-(4-fluorophenyl)-1H-indazol-5-yl)(phenyl)methyl)pentyl)ethanesulfonamide] | 40 nM | 6.1 nM | 

Source: patent US8198311B2, “Modulators of glucocorticoid receptor, AP-1, and/or NF-κB activity and use thereof” (Bristol-Myers Squibb Company, priority 2006, dated 2012)
